The values that follow come from paper PMC5478271, “Chemical structure-guided design of dynapyrazoles, cell-permeable dynein inhibitors with a unique mode of action” (eLife, 2017).

One data set addresses T1, GFP-dynein 1 (Homo sapiens, UniProt Q14204).
T1 construct: (AA 1320–4646 with additional valine [at position 4647], uniprot Q14204); protein A tag (followed by TEV-cleavable linker) (N, cleaved yes); made in house; host or cells: insect cells (baculovirus)
As to the kind of experiment: Basal ATPase activity of GFP-dynein 1. The data set is classed as biochemical. The following applies: 40 µM compound, 1 mM MgATP, 2% DMSO; control 0.62 ± 0.2 s^−1. Here is the method: ATPase assays using recombinant Dynein 1 (wild-type and mutants) were performed in a buffer containing 25 mM PIPES pH7.0, 30 mM KCl, 1 mM EGTA, 5 mM MgCl2, 0.01% triton X-100, 1 mM DTT, and 20–30 µM taxol (if microtubules were present). For typical conditions, enzyme was incubated with varying concentrations of inhibitor in buffer containing 2% DMSO for 10 min in a volume of 10 μL. When microtubules were present, they were polymerized by stepwise addition of taxol and high concentrations of DMSO (30% final during polymerization reactions), and re-suspended following centrifugation in ATPase buffer to a concentration up to threefold above the final concentration used in the reaction (bovine brain tubulin, no fluoresecent label). For microtubule-stimulated reactions in dose-response format, reactions were assembled by 1:1:1 mixture of 3x enzyme stock, 3x compound stock (in buffer with 6% DMSO), and 3x microtubule stock to each well. For microtubule-stimulated ATPase assays at tubulin concentrations > 2.5 µM, enzyme stock was supplemented with compound stock in pure DMSO (resulting in an intermediate DMSO concentration of 6%), and then the microtubule stock was added. […]
Assembled reaction mixtures (including enzyme, compound, and microtubules, if present) were incubated for 10 min before addition of ATP. […] The fraction of γ-phosphate hydrolyzed in each condition was quantified using FIJI.

Data set [1] concerns Gli-driven luciferase reporter in NIH-3T3 (Shh-Light2) cells. As to the kind of experiment: Hedgehog pathway activity, Gli-driven luciferase reporter (Shh-Light2 cells, SAG-stimulated). The data set is classed as cell-based. Particulars: for Concentration at which cell death was observed: 28 hr time course, ~10-fold above the IC50; for IC50: Shh Light2, SAG 500 nM, low serum (0.5% BCS), 28–32 hr, read-out: IC50, inhibition of Gli-driven luciferase reporter expression. From the text:
We next examined the inhibition of dynein 2 by dynapyrazole-A in cell-based assays. In cell culture, serum starvation results in the formation of primary cilia, which are required for Hedgehog signaling ([Goetz and Anderson, 2010]). Quiescent cells respond to the Hedgehog ligand or to a synthetic agonist and pathway activity can be measured using a Gli-driven luciferase reporter ([Taipale et al., 2000]; [Chen et al., 2002]). Expression of Hedgehog-driven luciferase reporter was inhibited by dynapyrazole-A (Compound 8, IC50: 1.9 ± 0.6 µM) ~8 fold more potently than ciliobrevin D (IC50: 15.5 ± 3 µM, Figure 3I). […] In this assay, we have also observed cell death at high ciliobrevin D concentrations (200 µM,~10x above its IC50). To stimulate Hedgehog pathway activity, we used the synthetic agonist of smoothened (SAG) ([Chen et al., 2002]), which competes with many known Hedgehog pathway inhibitors for binding to Smoothened, a key protein in this signaling pathway ([Sharpe et al., 2015]). As dynapyrazole-A inhibits Hedgehog signaling at high SAG concentrations (500 nM), it is likely to act downstream of Smoothened, as was previously noted for ciliobrevins and consistent with inhibition of dynein 2 ([Hyman et al., 2009]; [Firestone et al., 2012]).
NIH-3T3 cells stably expressing a luciferase reporter downstream of a Gli binding site (Shh-Light2 cells, RRID: CVCL_2721) were maintained in DMEM with 10% bovine calf serum (BCS). Cells were seeded at a density of 30,000 cells/well in 96-well tissue culture-treated plates (Corning, cat #353072) in 100 μL in DMEM +10% BCS, and incubated for 48 hr ([Taipale et al., 2000]). Wells were washed briefly with PBS. Next 100 μL of low serum media (DMEM +0.5% BCS) containing smoothened agonist (SAG, 500nM), and either solvent control (0.2% DMSO) or test compound (serial threefold dilutions of each inhibitor starting from 20 μM) were added to the wells. After 28–32 hr of inhibitor treatment, cells were washed with 50 μL PBS and lysed for >30 min in 30 μL Passive Lysis Buffer (Promega Dual Luciferase kit, cat E1910). 5 μL of each lysate was transferred to white, solid-bottom 96-well plates (Greiner, cat #655075), followed by rapid addition (within 30 s) of 30 μL of Luciferase Assay Reagent using a multichannel pipette. Luminescence for each condition was read using a Synergy Neo plate reader (5 s integration time per well). Cell line identity was confirmed by measurement of the degree of response to Hedgehog pathway stimulation by the synthetic agonist SAG and using previously-published values from our groups and others as references ([Firestone et al., 2012]; [Hyman et al., 2009]).
Curve fitting: Where dose-response experiments are fit and IC50values given, these are obtained as follows: Individual experiments are treated as separate. The data are fit to a sigmoidal dose-response curve of the form (Y=Bottom + (Top-Bottom)/(1 + 10^((LogIC50-X)*HillSlope)). All variables were allowed to float freely with the exception of the variable denoted ‘bottom’, which was constrained to be >0. The separate IC50 values obtained from fits to each individual experiment's dataset were averaged together and presented as a mean with range (Figure 3G and H) or standard deviation (Figures 3I, 5D, 6E and K).
Background: In a reporter assay the amount or activity of a reporter protein is the signal.

T1 sequence (Q14204 with tags, fused parts or gaps): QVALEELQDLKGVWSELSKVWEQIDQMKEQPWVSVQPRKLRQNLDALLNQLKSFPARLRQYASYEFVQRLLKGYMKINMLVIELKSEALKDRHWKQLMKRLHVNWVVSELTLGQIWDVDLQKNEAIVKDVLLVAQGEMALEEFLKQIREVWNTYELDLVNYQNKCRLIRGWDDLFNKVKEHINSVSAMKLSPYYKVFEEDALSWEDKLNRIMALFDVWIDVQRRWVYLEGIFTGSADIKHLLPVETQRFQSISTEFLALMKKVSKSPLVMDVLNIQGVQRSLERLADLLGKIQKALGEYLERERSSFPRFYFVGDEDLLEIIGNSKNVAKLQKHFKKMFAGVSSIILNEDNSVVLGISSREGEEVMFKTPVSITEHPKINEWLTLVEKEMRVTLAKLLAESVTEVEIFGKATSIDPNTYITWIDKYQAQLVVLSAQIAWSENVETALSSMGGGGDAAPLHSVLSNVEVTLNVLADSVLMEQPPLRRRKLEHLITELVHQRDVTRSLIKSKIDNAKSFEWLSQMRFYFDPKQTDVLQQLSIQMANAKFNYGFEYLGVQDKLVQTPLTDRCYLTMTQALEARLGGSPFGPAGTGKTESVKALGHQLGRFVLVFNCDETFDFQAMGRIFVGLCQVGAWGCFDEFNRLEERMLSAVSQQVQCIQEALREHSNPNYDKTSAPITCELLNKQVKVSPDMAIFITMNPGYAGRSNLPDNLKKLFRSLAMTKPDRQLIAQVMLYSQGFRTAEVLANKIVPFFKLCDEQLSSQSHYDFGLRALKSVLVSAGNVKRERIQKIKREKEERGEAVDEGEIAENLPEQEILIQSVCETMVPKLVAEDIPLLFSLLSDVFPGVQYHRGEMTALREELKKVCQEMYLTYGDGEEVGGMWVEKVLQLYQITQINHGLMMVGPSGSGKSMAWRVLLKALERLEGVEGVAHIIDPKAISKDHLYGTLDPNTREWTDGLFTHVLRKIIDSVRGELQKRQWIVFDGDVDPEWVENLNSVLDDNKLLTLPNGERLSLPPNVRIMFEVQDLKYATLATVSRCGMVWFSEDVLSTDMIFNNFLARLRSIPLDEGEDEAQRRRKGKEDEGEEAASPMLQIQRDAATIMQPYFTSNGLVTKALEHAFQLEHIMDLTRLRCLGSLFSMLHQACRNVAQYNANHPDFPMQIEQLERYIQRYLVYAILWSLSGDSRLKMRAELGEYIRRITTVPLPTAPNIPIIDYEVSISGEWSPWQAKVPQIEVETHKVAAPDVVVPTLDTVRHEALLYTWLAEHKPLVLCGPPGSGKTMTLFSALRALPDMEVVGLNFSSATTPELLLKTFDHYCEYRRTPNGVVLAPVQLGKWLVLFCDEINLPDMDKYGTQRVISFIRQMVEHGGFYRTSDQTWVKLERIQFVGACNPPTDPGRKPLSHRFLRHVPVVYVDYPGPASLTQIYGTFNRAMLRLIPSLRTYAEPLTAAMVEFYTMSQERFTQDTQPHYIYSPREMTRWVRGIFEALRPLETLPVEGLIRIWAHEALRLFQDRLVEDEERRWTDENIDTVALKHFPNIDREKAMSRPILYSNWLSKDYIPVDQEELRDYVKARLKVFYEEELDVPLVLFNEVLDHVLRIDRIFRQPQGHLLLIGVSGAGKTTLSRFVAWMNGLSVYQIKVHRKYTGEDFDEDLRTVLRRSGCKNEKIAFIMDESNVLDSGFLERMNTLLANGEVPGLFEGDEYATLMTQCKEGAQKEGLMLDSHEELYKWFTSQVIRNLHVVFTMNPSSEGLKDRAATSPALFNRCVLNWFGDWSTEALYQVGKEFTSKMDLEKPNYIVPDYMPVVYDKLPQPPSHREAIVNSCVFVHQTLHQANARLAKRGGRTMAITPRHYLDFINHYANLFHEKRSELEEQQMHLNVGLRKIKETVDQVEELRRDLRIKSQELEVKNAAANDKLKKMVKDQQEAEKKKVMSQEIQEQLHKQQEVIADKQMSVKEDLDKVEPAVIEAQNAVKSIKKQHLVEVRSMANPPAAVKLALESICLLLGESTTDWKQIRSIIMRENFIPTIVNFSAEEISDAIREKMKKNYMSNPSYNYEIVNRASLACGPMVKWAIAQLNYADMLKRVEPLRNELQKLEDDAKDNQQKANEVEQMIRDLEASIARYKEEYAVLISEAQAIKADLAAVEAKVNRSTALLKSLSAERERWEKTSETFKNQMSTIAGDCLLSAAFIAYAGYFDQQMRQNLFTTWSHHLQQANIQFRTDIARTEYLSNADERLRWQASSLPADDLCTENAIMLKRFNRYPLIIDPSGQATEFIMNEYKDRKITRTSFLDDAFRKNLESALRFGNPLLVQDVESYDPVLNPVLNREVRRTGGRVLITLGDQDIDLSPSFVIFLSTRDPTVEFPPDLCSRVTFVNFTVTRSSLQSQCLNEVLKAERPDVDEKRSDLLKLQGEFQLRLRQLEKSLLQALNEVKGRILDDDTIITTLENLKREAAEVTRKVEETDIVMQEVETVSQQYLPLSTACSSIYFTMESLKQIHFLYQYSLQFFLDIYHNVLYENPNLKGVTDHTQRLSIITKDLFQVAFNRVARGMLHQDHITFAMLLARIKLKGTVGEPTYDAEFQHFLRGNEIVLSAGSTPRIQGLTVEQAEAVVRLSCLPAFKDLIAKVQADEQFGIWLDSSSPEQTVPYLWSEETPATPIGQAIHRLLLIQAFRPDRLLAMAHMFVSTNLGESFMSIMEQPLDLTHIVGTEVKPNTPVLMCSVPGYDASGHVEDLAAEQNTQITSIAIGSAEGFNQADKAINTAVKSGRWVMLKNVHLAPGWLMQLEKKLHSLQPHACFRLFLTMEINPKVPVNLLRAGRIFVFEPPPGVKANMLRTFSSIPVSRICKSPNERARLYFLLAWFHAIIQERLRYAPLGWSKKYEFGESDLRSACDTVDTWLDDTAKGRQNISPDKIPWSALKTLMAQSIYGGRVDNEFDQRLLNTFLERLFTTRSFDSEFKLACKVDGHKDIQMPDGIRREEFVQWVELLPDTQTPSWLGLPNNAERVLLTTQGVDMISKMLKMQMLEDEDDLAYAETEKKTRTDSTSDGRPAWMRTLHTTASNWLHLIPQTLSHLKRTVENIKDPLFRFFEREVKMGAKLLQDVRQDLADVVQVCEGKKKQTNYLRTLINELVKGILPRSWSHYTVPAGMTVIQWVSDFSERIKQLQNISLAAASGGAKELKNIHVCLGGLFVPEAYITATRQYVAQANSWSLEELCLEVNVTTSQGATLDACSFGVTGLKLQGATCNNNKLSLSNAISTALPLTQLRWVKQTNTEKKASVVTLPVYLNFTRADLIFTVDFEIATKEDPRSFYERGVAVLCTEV

Broadly, the IC50 is the concentration that gives 50% inhibition. In the case of `N#Cc1c(C2(c3ccc(Cl)cc3)CC2)nn2c1[nH]c(=O)c1cc(I)ccc12` [Compound 8, 2-[1-(4-chlorophenyl)cyclopropyl]-7-iodo-5-oxo-4H-pyrazolo[1,5-a]quinazoline-3-carbonitrile], the “Inhibition of basal ATPase activity of GFP-dynein 1” value on GFP-dynein 1 was “did not inhibit”. Further, in data set [1], the “Concentration at which cell death was observed” value amounted to 20 µM and the IC50 was determined as 1.9 ± 0.6 µM. Further, the “Potency relative to ciliobrevin D, Hedgehog-driven luciferase reporter” value in data set [1] (more potent than ciliobrevin D) is on record as ~ 8 fold.

By inhibition is commonly meant the drop in the measured response relative to a control, in per cent. Low values mean a response near the control, high ones a response far below the control. In the case of `N#C/C(C(=O)c1ccc(Cl)cc1Cl)=C1\NC(=O)c2ccc(Cl)cc2N1` [ciliobrevin D, reference compound], the inhibition at 40 µM against GFP-dynein 1 was ~70%. In data set [1], the “Concentration at which cell death was observed” value is 200 µM and the IC50 was found to be 15.5 ± 3 µM.
